According to article PMC9569971, “New Oxazolo[5,4-d]pyrimidines as Potential Anticancer Agents: Their Design, Synthesis, and In Vitro Biological Activity Research” (International Journal of Molecular Sciences, 2022):
Entries after “also recorded” stand apart in the source; their conditions may differ. Like-named read-outs stand apart in the source and are kept apart here.

How the values were obtained:
HT29 [1] = conditions: ref 67; cited from earlier work
MCF7 = conditions: cited from earlier work
A549 = conditions: cited from earlier work
[2] = tested on: HT29 primary colon adenocarcinoma cells; test: Detection of apoptosis (Annexin V FITC / propidium iodide); type: cell-based, human; set-up: unit not given here; conditions: 24 h
Protocol: (§1) All cell lines were grown in 5% CO2 at 95% humidity and 37 °C, with both morphology and confluence assessed twice per week. When the confluence was greater than 70%, adherent cell lines were detached from the bottle surface with a TrypLE solution and then used in assays or reduced. The cells were collected into centrifuge tubes and centrifuged at 1000× g for 5 min at room temperature. The supernatant was removed to dry. The cell pellets were then resuspended in an appropriate medium. The cells were counted using a Bürker chamber and resuspended in 96-well plates to a cell density of 10,000 cells per well for MTT assay. For the rhodamine accumulation test and the detection of apoptosis assay, cells were seeded at a density of 30,000 per well. In the migration assay, cells were seeded at a density of 20,000 per well, and monolayer formation was awaited.
HT29 primary colon adenocarcinoma cells were grown in 96-well plates for 24 h. The 5 selected derivatives were added at concentrations of 1, 2, 5, and 10 µM, and then incubated for 24 h. The mixture of Annexin V conjugated with fluorescein and propidium iodide in PBS with Mg^2+ and Ca^2+ ions (Thermo Fisher Scientific, Waltham, MA, USA) was then applied. The incubation lasted 20 min at 37 °C. Pictures were taken using a fluorescence microscope. Thirteen images were taken from each well using an EVOS FL fluorescence microscope, with three replications for each compound. The open ImageJ space was used to analyze the number of cells. The Thermo Fisher Dead Cell Apoptosis Kit with Annexin V FITC and Propidium Iodide (PI) detects phosphatidylserine extrusion in apoptotic cells using Annexin V conjugated with a green fluorescent FITC dye and dead cells stained by PI with red fluorescence.

HT29 [3] = tested on: HT29; set-up: method as in PMID 32759841; conditions: estimated based on data taken from reference; cited from earlier work
HT29 cells = test: Migration (scratch) assay; type: cell-based, human; conditions: control T 155558.2, control T0 544366.45
Protocol: The scratch test was performed to verify that the tested compound 3g could inhibit the formation of metastases by the HT29 cell line. The seeded HT29 cells were incubated until they formed a monolayer over the entire surface of the well. Then, a scratch test was performed by making a scratch in the monolayer and measuring its width—that is, To, amounting to 544,366.45 μm^2. Freshly prepared compounds were added to the HT29 cells at concentrations of 10, 25, 50, and 100 μM. Breeding plates were incubated for 24 h. The next day, scratch width was measured again using the ImageJ open-source platform. […] The lowest cellular overgrowth of HT29 culture occurred at the concentration of 100 μM for the compound. Compound 3g inhibited the migration of HT29 cells more strongly than the reference drugs, showing that it has the potential to inhibit metastasis. The width of the scratch after 24 h when no compound was applied to the cells was used as a control (T = 155,558.2 μm^2).
as §1
After seeding, HT29 cells were incubated until they formed a monolayer over the entire surface of the well. A scratch was made on the surface overgrown with cells, and then photomicrographs of the scratch were taken using the EVOS FL microscope. The freshly prepared compound 3g and the reference drugs were added at concentrations of 10, 25, 50, and 100 µM. Then, they were incubated for 24 h, and micrographs were performed at that time using the EVOS FL microscope. The scratch width was measured using the ImageJ open-source platform. The measurement of scratch width was also performed after 24 h without adding compounds.

[4] = MTT viability assay, L929; type: cell-based, murine; conditions: mouse, L929 fibroblasts, tested 1–500 µM
Protocol: as §1, with “When” for “All cell lines were grown in 5% CO2 at 95% humidity and 37 °C, with both morphology and confluence assessed twice per week. When”
(§2) In this study, normal human dermal fibroblasts (NHDFs), breast cancer cells (MCF7), human lung adenocarcinoma cells (A549), murine fibroblasts (L929), colon adenocarcinoma cells (HT29), and colorectal adenocarcinoma cells (LoVo) were used. All cell lines were cultured in the recommended media. […] The human lung adenocarcinoma cell line A549 and breast cancer cell line MCF-7 were obtained from the ECACC. These cell lines were cultured in Eagle’s minimal essential medium (MEM). Murine fibroblast L929 (Sigma-Aldrich, Merck Group, Headquarters, Darmstadt, Germany; the European Collection of Authenticated Cell Cultures—ECACC) cells were grown in DMEM. […] All media were supplemented with 10% FBS and 100 µg/mL of penicillin–streptomycin.
(§3) All compounds were dissolved in DMSO and the reference drugs were dissolved in physiological saline to concentrations of 10 mM. Concentrations from 1 to 500 μM in the media recommended for the cell lines were prepared for the tests.
(§4) All of the synthesized derivatives were evaluated via the MTT assay. All cell lines were seeded into 96-well plates at a density of 10,000 cells per well. To allow the cells to adhere to the surface of the plates, they were incubated overnight before the application of the test compounds. […] The tests were performed for concentrations of 1, 5, 10, 25, 50, 100, 250, and 500 μM. The solutions of the test compounds were removed from the culture on the 96-well plates. […] The supernatant was then removed. The violet crystal was dissolved in isopropanol for 30 min by shaking. Absorbance was measured at 570 nm.
(§5) Biological assays were performed in three independent replicates, and each replicate used four samples. Three repetitions were made for the ELISA determinations. For the assessment of cytotoxicity, mathematical models were developed using the GraphPad PRISM software, based on which CC50 was determined. The values of CC50 were estimated based on nonlinear regression using the dependence of the biological effect on the molar concentrations of the compounds (four-parameter logistic model with Hill slope).

[5] = tested on: normal human dermal fibroblasts (NHDF); test: MTT viability assay, NHDF; type: cell-based; conditions: tested 1–500 µM
Protocol: as §1, with “When” for “All cell lines were grown in 5% CO2 at 95% humidity and 37 °C, with both morphology and confluence assessed twice per week. When”
as §2, §3, §4, §5

[6] = tested on: primary colon adenocarcinoma (HT29); test: MTT viability assay, HT29; type: cell-based, human; conditions: for SI (selectivity index): CC50 NHDF / CC50 HT29; for CC50: Homo sapiens, HT-29, HT29, MTT; for CC50 / CC50 ± SD: tested 1–500 µM; for CC50 ± SD: HT29, MTT
Protocol: as §1, with “When” for “All cell lines were grown in 5% CO2 at 95% humidity and 37 °C, with both morphology and confluence assessed twice per week. When”
as §2, §3, §4, §5

[7] = tested on: breast adenocarcinoma (MCF7); test: MTT viability assay, MCF7; type: cell-based, human; conditions: for SI (selectivity index): CC50 NHDF / CC50 MCF7; for CC50: Homo sapiens
Protocol: as §1, with “When” for “All cell lines were grown in 5% CO2 at 95% humidity and 37 °C, with both morphology and confluence assessed twice per week. When”
as §2, §3, §4, §5

[8] = tested on: lung adenocarcinoma (A549); test: MTT viability assay, A549; type: cell-based, human
Protocol: as §1, with “When” for “All cell lines were grown in 5% CO2 at 95% humidity and 37 °C, with both morphology and confluence assessed twice per week. When”
as §2, §3, §4, §5

[9] = tested on: metastatic colon adenocarcinoma (LoVo); test: MTT viability assay, LoVo; type: cell-based, human
Protocol: as §1, with “When” for “All cell lines were grown in 5% CO2 at 95% humidity and 37 °C, with both morphology and confluence assessed twice per week. When”
as §2, §3, §4, §5

[10] = tested on: murine fibroblasts (L929); test: MTT viability assay, L929; type: cell-based; conditions: tested 1–500 µM
Protocol: as §1, with “When” for “All cell lines were grown in 5% CO2 at 95% humidity and 37 °C, with both morphology and confluence assessed twice per week. When”
as §2, §3, §4, §5

[11] = MTT viability assay, NHDF; type: cell-based, human; conditions: human, normal human dermal fibroblasts (NHDF), tested 1–500 µM
Protocol: as §1, with “When” for “All cell lines were grown in 5% CO2 at 95% humidity and 37 °C, with both morphology and confluence assessed twice per week. When”
as §2, §3, §4, §5

In the case of COc1cc2nccc(Oc3ccc(NC(=O)C4(C(=O)Nc5ccc(F)cc5)CC4)cc3)c2cc1OC [Cabozantinib], the IC50 (HT29 [1]) is listed as 11.5 ± 1.1 µM, the IC50 (MCF7) is listed as 14.3 ± 0.87 µM and the IC50 (A549; ref 67, read-out: IC50 (converted)) is listed as 9.52 ± 0.91 µM. The IC50 (A549; ref 68, read-out: IC50 (converted)) was 15.2 µM.
In the case of N.N.[Cl][Pt][Cl] [Cisplatin, reference compound], the apoptosis mean ([2]; 1 μM) is reported as 4.45, the late apoptosis mean ([2]; 1 μM) is reported as 26.25 and the necrosis mean ([2]; 1 μM) is reported as 7.81. The “percent live (viable) cells” value ([2]; 1 μM) was 50.30, the apoptosis mean ([2]; 2 μM) was 7.18 and the late apoptosis mean ([2]; 2 μM) was 24.44. For the same compound, the necrosis mean ([2]; 2 μM) was 4.42, the “percent live (viable) cells” value ([2]; 2 μM) was 52.47 and the apoptosis mean ([2]; 5 μM) was 6.28. The late apoptosis mean ([2]; 5 μM) was 29.59, the necrosis mean ([2]; 5 μM) was 3.95 and the “percent live (viable) cells” value ([2]; 5 μM) was 59.69. It also gave an apoptosis mean ([2]; 10 μM) of 2.34, a late apoptosis mean ([2]; 10 μM) of 16.55 and a necrosis mean ([2]; 10 μM) of 32.35. For the same compound, the “percent live (viable) cells” value ([2]; 10 μM) was 48.76, the CC50 (HT29 [3]) was 16.9 ± 1.94 µM and the “scratch width after 24 h, mean” value (HT29 cells; 10 μM) was 171562.8 μm^2. For the same compound, the “scratch width after 24 h, mean” value (HT29 cells; 25 μM) was 209621 μm^2, the “scratch width after 24 h, mean” value (HT29 cells; 50 μM) was 216006.4 μm^2 and the “scratch width after 24 h, mean” value (HT29 cells; 100 μM) was 253653.8 μm^2.
For CCNc1ncnc2oc(-c3c(C)noc3N)nc12 [Compound 3b, 2-(5-Amino-3-methylisoxazol-4-yl)-7-N-ethylaminooxazolo[5,4-d]pyrimidine], the CC50 [4] was 235 ± 11.5 µM, the “CC50 ± SD” value [5] was “Non-toxic” and the “SI (selectivity index)” value [6] was >>1. The CC50 [6] was 194 ± 15.4 µM, the “SI (selectivity index)” value [7] was >>1 and the CC50 ([7]; MCF7, MTT, tested 1–500 µM) was 193 ± 16.9 µM. The melting point was 253 to 254 °C (dec.) and the “CC50 ± SD” value ([8]; A549, MTT, tested 1–500 µM) was “no activity”.
For CCCCNc1ncnc2oc(-c3c(C)noc3N)nc12 [Compound 3d, 2-(5-Amino-3-methylisoxazol-4-yl)-7-N-butylaminooxazolo[5,4-d]pyrimidine], the “SI (selectivity index)” value ([9]; CC50 NHDF / CC50 LoVo) was 0.558, the CC50 ([9]; Homo sapiens, LoVo, MTT, tested 1–500 µM) was 226 ± 8.28 µM and the “CC50 ± SD” value [10] was “no toxic activity; also recorded: Non-toxic”. For the same compound, the CC50 [11] was 126 ± 9.87 µM, the “SI (selectivity index)” value [6] was 0.820 and the CC50 [6] was 154 ± 13.4 µM. The “SI (selectivity index)” value [7] was 0.944, the CC50 ([7]; MCF7, MTT, tested 1–500 µM) was 134 ± 14 µM and the melting point was 239 to 240 °C (dec.). For the same compound, the “SI (selectivity index)” value ([8]; CC50 NHDF / CC50 A549) was 0.705 and the CC50 ([8]; Homo sapiens, A549, MTT, tested 1–500 µM) was 179 ± 14.9 µM.
In the case of Cc1noc(N)c1-c1nc2c(NCCO)ncnc2o1 [Compound 3h, 2-(5-Amino-3-methylisoxazol-4-yl)-7-N-(2-hydroxyethyl)aminooxazolo[5,4-d]pyrimidine], the CC50 [4] is reported as 146 ± 11.1 µM, the “CC50 ± SD” value [5] is reported as “Non-toxic” and the “CC50 ± SD” value [6] is reported as “lack cytotoxic activity”. The “CC50 ± SD” value ([7]; MCF7, MTT, tested 1–500 µM) was “no cytotoxic activity” and the melting point was 213 to 214 °C (dec.).
For Cc1noc(N)c1-c1nc2c(NCCCO)ncnc2o1 [Compound 3i, 2-(5-Amino-3-methylisoxazol-4-yl)-7-N-(3-hydroxypropyl)aminooxazolo[5,4-d]pyrimidine], the CC50 [4] was 171 ± 22.8 µM, the “CC50 ± SD” value [5] was “Non-toxic” and the “CC50 ± SD” value [6] was “lack cytotoxic activity”. The “SI (selectivity index)” value [7] was >>1, the CC50 ([7]; MCF7, MTT, tested 1–500 µM) was 251 ± 22.1 µM and the melting point was 225 to 226 °C (dec.).
